# Measurements: PubChem BioAssay AID1963867 (Molecular Pharmacology Branch, DTP, NCI, 2024)
# System: KRAS-mutant PDC tumor spheroid with HUVEC/MSC, viability
# Assay: Anticancer human tumor 327498-153-R-J2-PDC patient-derived uterine carcinosarcoma cell line growth inhibition [KRAS2]
# Conditions: for viability, T/C: stronger effect = lower value
# Outline: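 KRAS-mutant tumor cells were grown as spheroids with HUVEC endothelial cells and human MSCs as stroma. Targeted agents were tested alone and with KRAS pathway inhibitors. Doses started at or near clinical Cmax, or 10 microM, descending half-log.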
# [1] = curve of first compound, second compound 0.1 µM
# [2] = curve of first compound, second compound 0.316 µM
# [3] = curve of first compound, second compound 1 µM
# [4] = curve of first compound, second compound 3.16 µM
# [5] = second compound 0.1 µM, first compound 0.00316 µM
# [6] = second compound 0.1 µM, first compound 0.01 µM
# [7] = second compound 0.1 µM, first compound 0.0316 µM
# [8] = second compound 0.1 µM, first compound 0.1 µM
# [9] = second compound 0.316 µM, first compound 0.00316 µM
# [10] = second compound 0.316 µM, first compound 0.01 µM
# [11] = second compound 0.316 µM, first compound 0.0316 µM
# [12] = second compound 0.316 µM, first compound 0.1 µM
# [13] = second compound 1 µM, first compound 0.00316 µM
# [14] = second compound 1 µM, first compound 0.01 µM
# [15] = second compound 1 µM, first compound 0.0316 µM
# [16] = second compound 1 µM, first compound 0.1 µM
# [17] = second compound 3.16 µM, first compound 0.00316 µM
# [18] = second compound 3.16 µM, first compound 0.01 µM
# [19] = second compound 3.16 µM, first compound 0.0316 µM
# [20] = second compound 3.16 µM, first compound 0.1 µM
# 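Note: spheroids exposed to agents for seven days before reading.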
# 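Throughout, for viability, T/C: 100% = DMSO vehicle wells so lower means fewer viable cells.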
SMILES,IC50 [1] [nM],IC50 [2] [nM],IC50 [3] [nM],IC50 [4] [nM],"viability, T/C [5] [%]","viability, T/C [6] [%]","viability, T/C [7] [%]","viability, T/C [8] [%]","viability, T/C [9] [%]","viability, T/C [10] [%]","viability, T/C [11] [%]","viability, T/C [12] [%]","viability, T/C [13] [%]","viability, T/C [14] [%]","viability, T/C [15] [%]","viability, T/C [16] [%]","viability, T/C [17] [%]","viability, T/C [18] [%]","viability, T/C [19] [%]","viability, T/C [20] [%]",also measured
CN(C)C/C=C/C(=O)Nc1cc2c(Nc3ccc(F)c(Cl)c3)ncnc2cc1O[C@H]1CCOC1 + C=CC(=O)N1CCN(c2nc(OCC3CCCN3C)nc3c2CCN(c2cccc4cccc(C)c24)C3)CC1CC#N,22,2.29,2.8,< 0.316,50.8,53.7,48.4,47.5,45.2,44.8,50.2,45.1,47,49.1,43.6,44,0.21,1.34,0.49,0.3,"IC50 (curve of first compound, second compound 0.0316 µM): > 100 nM; viability, T/C (second compound 0.0316 µM, first compound 0.000316 µM): 88.8%; viability, T/C (second compound 0.0316 µM, first compound 0.001 µM): 80.8%; viability, T/C (second compound 0.0316 µM, first compound 0.00316 µM): 74.4%; viability, T/C (second compound 0.0316 µM, first compound 0.01 µM): 64.2%; viability, T/C (second compound 0.0316 µM, first compound 0.0316 µM): 66.5%; viability, T/C (second compound 0.0316 µM, first compound 0.1 µM): 61.4%; viability, T/C (second compound 0.1 µM, first compound 0.000316 µM): 62.9%; viability, T/C (second compound 0.1 µM, first compound 0.001 µM): 64.1%; viability, T/C (second compound 0.316 µM, first compound 0.000316 µM): 66.8%; viability, T/C (second compound 0.316 µM, first compound 0.001 µM): 56.2%; viability, T/C (second compound 1 µM, first compound 0.000316 µM): 56.3%; viability, T/C (second compound 1 µM, first compound 0.001 µM): 54.9%; viability, T/C (second compound 3.16 µM, first compound 0.000316 µM): 1.53%; viability, T/C (second compound 3.16 µM, first compound 0.001 µM): 0.35%"
Cn1nccc1Nc1nccc(-c2cc3c(s2)C(C)(C)N(CCN2CCOCC2)C3=O)n1,,,,,,,,,,,,,,,,,,,,,"viability, T/C (compound 0.0316 µM): 101% [middle of 5 runs]; viability, T/C (compound 0.1 µM): 96.8% [middle of 5 runs]; viability, T/C (compound 0.316 µM): 79.2% [middle of 5 runs]; viability, T/C (compound 1 µM): 69.1% [middle of 5 runs]; viability, T/C (compound 3.16 µM): 57.6% [middle of 5 runs]; viability, T/C (compound 10 µM): 43.9% [middle of 5 runs]; IC50 (curve of compound): 5.75 µM [middle of 5 runs]"
CCN1CCN(Cc2ccc(Nc3ncc(F)c(-c4cc(F)c5nc(C)n(C(C)C)c5c4)n3)nc2)CC1 + CNCc1ccccc1-c1csc(C(C)Nc2nc(C)nc3cc(OC)c(OC)cc23)c1,42.9,13.1,9.26,< 3.16,65.2,58.8,52.9,37.5,69.4,52.8,41.3,35.5,72.7,46.9,36.4,34.5,0.58,0.79,0.11,0.06,"IC50 (curve of first compound, second compound 10 µM): < 3.16 nM; viability, T/C (second compound 0.1 µM, first compound 0.316 µM): 41.7%; viability, T/C (second compound 0.1 µM, first compound 1 µM): 47%; viability, T/C (second compound 0.316 µM, first compound 0.316 µM): 39.6%; viability, T/C (second compound 0.316 µM, first compound 1 µM): 43.9%; viability, T/C (second compound 1 µM, first compound 0.316 µM): 36.2%; viability, T/C (second compound 1 µM, first compound 1 µM): 21.8%; viability, T/C (second compound 3.16 µM, first compound 0.316 µM): 0.24%; viability, T/C (second compound 3.16 µM, first compound 1 µM): 0.25%; viability, T/C (second compound 10 µM, first compound 0.00316 µM): 0.56%; viability, T/C (second compound 10 µM, first compound 0.01 µM): 0.69%; viability, T/C (second compound 10 µM, first compound 0.0316 µM): 0.91%; viability, T/C (second compound 10 µM, first compound 0.1 µM): 0.68%; viability, T/C (second compound 10 µM, first compound 0.316 µM): 0.69%; viability, T/C (second compound 10 µM, first compound 1 µM): 0.69%"
